Measured values taken from patent publication US20080045513A1, “C[…] INHIBITOR AND […], ANTI-INFLAMMATORY OR ANTI-PYRETIC AGENT” (N.V. Organon, priority 2006, published 2008).

Assays:
[1] = target: T1, FAAH (Homo sapiens, UniProt O00519); experiment: FAAH LC-MS/MS screening assay (anandamide hydrolysis by human liver microsomes); assay type: biochemical; conditions: for anandamide hydrolysis allowed (percent hydrolysis normalized to control): inhibitor at 30 nM, 60 minute incubation at 37° C.
T1 construct: 25 μL of human liver microsomes (31.3 μg); from tissue; host or cells: human liver microsomes
T1 sequence (O00519 1-579): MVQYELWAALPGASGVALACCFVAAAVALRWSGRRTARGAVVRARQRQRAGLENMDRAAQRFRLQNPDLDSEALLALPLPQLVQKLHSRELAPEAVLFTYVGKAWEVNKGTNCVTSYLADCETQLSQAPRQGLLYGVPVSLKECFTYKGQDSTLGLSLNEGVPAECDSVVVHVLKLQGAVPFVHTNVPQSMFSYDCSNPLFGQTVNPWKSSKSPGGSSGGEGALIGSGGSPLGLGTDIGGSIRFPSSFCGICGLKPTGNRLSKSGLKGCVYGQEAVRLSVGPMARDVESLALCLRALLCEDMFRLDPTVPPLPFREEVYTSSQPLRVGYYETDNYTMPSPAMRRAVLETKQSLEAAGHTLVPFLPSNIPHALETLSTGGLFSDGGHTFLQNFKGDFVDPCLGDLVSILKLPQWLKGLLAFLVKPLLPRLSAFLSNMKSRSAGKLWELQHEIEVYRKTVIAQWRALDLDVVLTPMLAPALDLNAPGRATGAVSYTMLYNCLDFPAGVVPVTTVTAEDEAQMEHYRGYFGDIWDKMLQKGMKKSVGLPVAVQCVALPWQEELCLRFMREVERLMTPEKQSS
Description: For determining IC50 values for candidate FAAH inhibitor compounds, the above method is used with an adjusted FAAH inhibitor concentration. In the IC50 assay, the FAAH inhibitor is added at a concentration range of approximately 3 μM to 0.03 nM. The final calculation of IC50 is determined by first transforming the concentrations by “X=log(X)” and then analyzing the data with a sigmoidal dose-response curve (no constraints) using GraphPad Prism version 4.00 for Windows (GraphPad Software, San Diego Calif. USA, www.graphpad.com).

[2] = Pharmacokinetics in rats following oral administration as a suspension; blood concentrations of compound, acetaminophen and fatty acid ethanolamides; assay type: in vivo; conditions: 10 mg/kg oral gavage
Description: Potential FAAH inhibitors are formulated for oral (p.o.), intraperitoneal (i.p.) or intravenous (i.v.) delivery to rats. Formulated compounds are administered and the animals were sacrificed at pre-determined time points post dose. At sacrifice, blood samples are collected into EDTA plasma tubes and whole brains were snap frozen in liquid nitrogen. EDTA plasma was isolated from blood samples after centrifugation. Brain and plasma samples are stored at −80° C. prior to analysis. All samples (brain and plasma) are analyzed for the concentrations of test compound (FAAH inhibitor), metabolites of the test compound (such as, for example, acetaminophen, propofol, NSAID, or NSAID metabolite) and endogenous fatty acid ethanolamide levels (including anandamide, oleoylethanolamide, and palmitoylethanolamide) by LC-MS/MS according to the invention. Levels of these compounds are compared across time points to determine pharmacokinetic properties of the test compound and partial pharmacological effects of inhibiting FAAH activity (including changes of fatty acid ethanolamide levels).
The pharmacokinetic properties of 4-acetamidophenyl cyclohexylnethylcarbamate were assessed in rats following oral administration as a suspension. […] The suspension of 4-acetamidophenyl cyclohexylmethylcarbamate was administered to rats at a dose of 10 mg/kg of 4-acetamidophenyl cyclohexylmethylcarbamate via oral gavage. Blood samples were extracted from the rats. Samples were analyzed for concentrations of OEA, PEA, AEA, 4-acetamidophenyl cyclohexylmethylcarbamate and acetaminophen (in-vivo metabolite). Baseline levels of OEA and PEA were 4.18 and 4.17 ng/mL, respectively.

[3] = test system: CFA-induced mechanical hyperalgesia in rats; experiment: Complete Freund's Adjuvant (CFA)-induced mechanical hyperalgesia (paw withdrawal threshold); assay type: in vivo, male Wistar rats; conditions: 60 mg/kg, p.o.; 24 h after intraplantar CFA; reading 2 h post drug administration
Description: In this rat model of inflammatory pain, inflammation is induced by intraplantar injection of complete Freund's adjuvant (CFA) into the hind paw. The associated mechanical hyperalgesia is quantified by measuring the reduction in paw withdrawal threshold (PWT) to a mechanical compression of the paw.
Experiments were conducted using male Wistar rats weighing 130-180 g. In brief, the rats' paw withdrawal threshold (PWT) to a mechanical compression of the hind paw was measured (baseline reading) using a Randall-Sellito apparatus (Ugo Basile). A cut-off of 200 g was employed to minimise tissue damage to the paw. The animals were then briefly anaesthetised with isoflurane (˜2%) and complete Freund's adjuvant (0.1 ml per paw) was injected subcutaneously (s.c.) into the plantar surface of the left hind paw. The animals were then returned to their home cage and left for the inflammation to develop.
Twenty four hours after CFA injection, PWT's were re-measured (0 min); only those animals developing hyperalgesia (>20 g decrease in PWT compared to their baseline readings) were included for drug assessment. Rats were then dosed orally with either vehicle or test compound. Readings were then made at 2 h post drug administration.

Row | Structure (SMILES) | anandamide hydrolysis allowed (percent hydrolysis normalized to control) [1] [%] | AUC of AEA [2] [ng·h/mL] | Tmax of AEA [2] [h] | Tmax of OEA [2] [min] | Tmax of PEA [2] [min] | AUC of OEA ([2]; baseline OEA 4.18 ng/mL) [ng·h/mL] | Cmax of OEA ([2]; baseline OEA 4.18 ng/mL) [ng/mL] | AUC of PEA ([2]; baseline PEA 4.17 ng/mL) [ng·h/mL] | Cmax of PEA ([2]; baseline PEA 4.17 ng/mL) [ng/mL] | AUC ([2]; rat, plasma, suspension) [ng·h/mL] | Cmax ([2]; rat, plasma, suspension) [ng/mL] | Tmax ([2]; rat, plasma, suspension) [min] | reversal of mechanical hyperalgesia [3] | IC50 ([1]; inhibitor range approximately 3 μM to 0.03 nM) [nM]
1 | CC(=O)Nc1ccc(OC(=O)NC2CCCCC2)cc1 [4-acetamidophenyl cyclohexylcarbamate] | 56 |  |  |  |  |  |  |  |  |  |  |  |  | 
2 | CC(=O)Nc1ccc(OC(=O)NCC2CCCCC2)cc1 [4-acetamidophenyl cyclohexylmethylcarbamate] | 37 | 0 | 0 | 90 | 60 | 40 | 7.55 | 43 | 8.85 | 6780 | 7740 | 30 | complete reversal | 14.6
3 | NC(=O)c1cccc(-c2cccc(OC(=O)NC3CCCCC3)c2)c1 [reference compound] | 30 |  |  |  |  |  |  |  |  |  |  |  |  | 
